# Experimental data from PubChem BioAssay (NCI).
#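 Briefly, cells in 96-well plates were exposed to five compound concentrations for 48 h, and endpoints were estimated by linear interpolation. At the TGI there is no net growth.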
# Tests used:
# Assay in all cases: NCI tumour cell line growth inhibition, 48 h
# 786-0 renal = tested on: 786-0 renal
# A498 renal = tested on: A498 renal
# A549 NSCLC = tested on: A549 NSCLC
# ACHN renal = tested on: ACHN renal
# BT-549 breast = tested on: BT-549 breast
# CAKI-1 renal = tested on: CAKI-1 renal
# CCRF-CEM leukemia = tested on: CCRF-CEM leukemia
# COLO 205 colon = tested on: COLO 205 colon
# DU-145 prostate = tested on: DU-145 prostate
# EKVX NSCLC = tested on: EKVX NSCLC
# HCC-2998 colon = tested on: HCC-2998 colon
# HCT-116 colon = tested on: HCT-116 colon
# HCT-15 colon = tested on: HCT-15 colon
# HL-60(TB) leukemia = tested on: HL-60(TB) leukemia
# HOP-62 NSCLC = tested on: HOP-62 NSCLC
# HOP-92 NSCLC = tested on: HOP-92 NSCLC
# HS 578T breast = tested on: HS 578T breast
# HT29 colon = tested on: HT29 colon
# IGROV1 ovarian = tested on: IGROV1 ovarian
# K-562 leukemia = tested on: K-562 leukemia
# KM12 colon = tested on: KM12 colon
# LOX IMVI melanoma = tested on: LOX IMVI melanoma
# M14 melanoma = tested on: M14 melanoma
# MCF7 breast = tested on: MCF7 breast
# MDA-MB-231 breast = tested on: MDA-MB-231 breast
# MDA-MB-435 = tested on: MDA-MB-435
# MDA-N = tested on: MDA-N
# MOLT-4 leukemia = tested on: MOLT-4 leukemia
# NCI-H460 lung = tested on: NCI-H460 lung
# NCI/ADR-RES ovarian = tested on: NCI/ADR-RES ovarian
# OVCAR-3 ovarian = tested on: OVCAR-3 ovarian
# OVCAR-4 ovarian = tested on: OVCAR-4 ovarian
# OVCAR-5 ovarian = tested on: OVCAR-5 ovarian
# OVCAR-8 ovarian = tested on: OVCAR-8 ovarian
# PC-3 prostate = tested on: PC-3 prostate
# RPMI-8226 leukemia = tested on: RPMI-8226 leukemia
# RXF 393 renal = tested on: RXF 393 renal
# SF-268 CNS = tested on: SF-268 CNS
# SF-295 CNS = tested on: SF-295 CNS
# SF-539 CNS = tested on: SF-539 CNS
# SK-MEL-2 melanoma = tested on: SK-MEL-2 melanoma
# SK-MEL-28 melanoma = tested on: SK-MEL-28 melanoma
# SK-MEL-5 melanoma = tested on: SK-MEL-5 melanoma
# SK-OV-3 ovarian = tested on: SK-OV-3 ovarian
# SN12C renal = tested on: SN12C renal
# SNB-19 CNS = tested on: SNB-19 CNS
# SNB-75 CNS = tested on: SNB-75 CNS
# SR leukemia = tested on: SR leukemia
# SW-620 colon = tested on: SW-620 colon
# T-47D breast = tested on: T-47D breast
# TK-10 renal = tested on: TK-10 renal
# U251 CNS = tested on: U251 CNS
# UACC-257 melanoma = tested on: UACC-257 melanoma
# UACC-62 melanoma = tested on: UACC-62 melanoma
# UO-31 renal = tested on: UO-31 renal
# NCI-H23 lung = tested on: NCI-H23 lung
# NCI-H522 lung = tested on: NCI-H522 lung
# MALME-3M melanoma = tested on: MALME-3M melanoma
# NCI-H226 lung = tested on: NCI-H226 lung
compound,measurement,setting,value
BrCC[P+](c1ccccc1)(c1ccccc1)c1ccccc1,TGI,786-0 renal,10.4 µM
same,TGI,A498 renal,41.3 µM
same,TGI,A549 NSCLC,> 100 µM
same,TGI,ACHN renal,> 100 µM
same,TGI,BT-549 breast,39.6 µM
same,TGI,CAKI-1 renal,25.2 µM
same,TGI,CCRF-CEM leukemia,12.2 µM
same,TGI,COLO 205 colon,17.6 µM
same,TGI,DU-145 prostate,19.8 µM
same,TGI,EKVX NSCLC,12.8 µM
same,TGI,HCC-2998 colon,27.2 µM
same,TGI,HCT-116 colon,8.38 µM
same,TGI,HCT-15 colon,> 100 µM
same,TGI,HL-60(TB) leukemia,5.33 µM
same,TGI,HOP-62 NSCLC,20.2 µM
same,TGI,HOP-92 NSCLC,13.1 µM
same,TGI,HS 578T breast,50.5 µM
same,TGI,HT29 colon,30.2 µM
same,TGI,IGROV1 ovarian,29.1 µM
same,TGI,K-562 leukemia,30.9 µM
same,TGI,KM12 colon,17.1 µM
same,TGI,LOX IMVI melanoma,17.6 µM
same,TGI,M14 melanoma,18 µM
same,TGI,MCF7 breast,30.5 µM
same,TGI,MDA-MB-231 breast,34.8 µM
same,TGI,MDA-MB-435,10.8 µM
same,TGI,MDA-N,7.59 µM
same,TGI,MOLT-4 leukemia,24.3 µM
same,TGI,NCI-H460 lung,73.3 µM
same,TGI,NCI/ADR-RES ovarian,27.5 µM
same,TGI,OVCAR-3 ovarian,11.7 µM
same,TGI,OVCAR-4 ovarian,23.1 µM
same,TGI,OVCAR-5 ovarian,26.8 µM
same,TGI,OVCAR-8 ovarian,21.9 µM
same,TGI,PC-3 prostate,17.3 µM
same,TGI,RPMI-8226 leukemia,8.08 µM
same,TGI,RXF 393 renal,8.02 µM
same,TGI,SF-268 CNS,8.25 µM
same,TGI,SF-295 CNS,> 100 µM
same,TGI,SF-539 CNS,35.3 µM
same,TGI,SK-MEL-2 melanoma,16.7 µM
same,TGI,SK-MEL-28 melanoma,19.5 µM
same,TGI,SK-MEL-5 melanoma,26.3 µM
same,TGI,SK-OV-3 ovarian,66.4 µM
same,TGI,SN12C renal,8.39 µM
same,TGI,SNB-19 CNS,62.1 µM
same,TGI,SNB-75 CNS,9.86 µM
same,TGI,SR leukemia,27.5 µM
same,TGI,SW-620 colon,34.4 µM
same,TGI,T-47D breast,5.17 µM
same,TGI,TK-10 renal,34.5 µM
same,TGI,U251 CNS,13.2 µM
same,TGI,UACC-257 melanoma,16.5 µM
same,TGI,UACC-62 melanoma,21.9 µM
same,TGI,UO-31 renal,22.8 µM
COC(=O)c1ccc(OCc2ccc3nc(-c4ccccc4)c(Cl)nc3c2)cc1,TGI,786-0 renal,48.9 µM
same,TGI,A498 renal,> 100 µM
same,TGI,A549 NSCLC,> 100 µM
same,TGI,ACHN renal,> 100 µM
same,TGI,BT-549 breast,> 100 µM
same,TGI,CAKI-1 renal,69.9 µM
same,TGI,CCRF-CEM leukemia,> 100 µM
same,TGI,COLO 205 colon,> 100 µM
same,TGI,DU-145 prostate,> 100 µM
same,TGI,EKVX NSCLC,> 100 µM
same,TGI,HCC-2998 colon,> 100 µM
same,TGI,HCT-116 colon,> 100 µM
same,TGI,HCT-15 colon,> 100 µM
same,TGI,HL-60(TB) leukemia,> 100 µM
same,TGI,HOP-62 NSCLC,> 100 µM
same,TGI,HOP-92 NSCLC,> 100 µM
same,TGI,HS 578T breast,99.4 µM
same,TGI,HT29 colon,> 100 µM
same,TGI,IGROV1 ovarian,> 100 µM
same,TGI,KM12 colon,> 100 µM
same,TGI,LOX IMVI melanoma,> 100 µM
same,TGI,M14 melanoma,> 100 µM
same,TGI,MCF7 breast,> 100 µM
same,TGI,MDA-MB-231 breast,60.2 µM
same,TGI,MDA-MB-435,> 100 µM
same,TGI,MDA-N,> 100 µM
same,TGI,MOLT-4 leukemia,> 100 µM
same,TGI,NCI-H23 lung,> 100 µM
same,TGI,NCI-H460 lung,> 100 µM
same,TGI,NCI-H522 lung,45.7 µM
same,TGI,NCI/ADR-RES ovarian,> 100 µM
same,TGI,OVCAR-3 ovarian,> 100 µM
same,TGI,OVCAR-4 ovarian,> 100 µM
same,TGI,OVCAR-5 ovarian,> 100 µM
same,TGI,OVCAR-8 ovarian,> 100 µM
same,TGI,PC-3 prostate,> 100 µM
same,TGI,RPMI-8226 leukemia,> 100 µM
same,TGI,SF-268 CNS,> 100 µM
same,TGI,SF-295 CNS,> 100 µM
same,TGI,SF-539 CNS,> 100 µM
same,TGI,SK-MEL-2 melanoma,> 100 µM
same,TGI,SK-MEL-28 melanoma,> 100 µM
same,TGI,SK-MEL-5 melanoma,> 100 µM
same,TGI,SN12C renal,> 100 µM
same,TGI,SNB-19 CNS,> 100 µM
same,TGI,SNB-75 CNS,55.4 µM
same,TGI,SR leukemia,> 100 µM
same,TGI,SW-620 colon,> 100 µM
same,TGI,T-47D breast,> 100 µM
same,TGI,TK-10 renal,> 100 µM
same,TGI,U251 CNS,> 100 µM
same,TGI,UACC-257 melanoma,> 100 µM
same,TGI,UACC-62 melanoma,> 100 µM
same,TGI,UO-31 renal,> 100 µM
Clc1ncc(C(Cl)(Cl)Cl)nc1-c1ccccc1,TGI,786-0 renal,5.77 µM
same,TGI,A549 NSCLC,22.5 µM
same,TGI,ACHN renal,3.19 µM
same,TGI,BT-549 breast,8.81 µM
same,TGI,CAKI-1 renal,5.46 µM
same,TGI,CCRF-CEM leukemia,> 100 µM
same,TGI,COLO 205 colon,4.11 µM
same,TGI,DU-145 prostate,2.96 µM
same,TGI,EKVX NSCLC,6.02 µM
same,TGI,HCC-2998 colon,2.9 µM
same,TGI,HCT-116 colon,3.52 µM
same,TGI,HCT-15 colon,3.42 µM
same,TGI,HL-60(TB) leukemia,6.41 µM
same,TGI,HOP-62 NSCLC,6.08 µM
same,TGI,HOP-92 NSCLC,4.5 µM
same,TGI,HS 578T breast,6.95 µM
same,TGI,HT29 colon,3.65 µM
same,TGI,IGROV1 ovarian,8.05 µM
same,TGI,K-562 leukemia,12.4 µM
same,TGI,KM12 colon,3.43 µM
same,TGI,LOX IMVI melanoma,15.4 µM
same,TGI,M14 melanoma,5.88 µM
same,TGI,MALME-3M melanoma,19.1 µM
same,TGI,MCF7 breast,3.44 µM
same,TGI,MDA-MB-231 breast,3.86 µM
same,TGI,MDA-MB-435,3.54 µM
same,TGI,MDA-N,3.82 µM
same,TGI,MOLT-4 leukemia,28.9 µM
same,TGI,NCI-H226 lung,39.4 µM
same,TGI,NCI-H23 lung,6.07 µM
same,TGI,NCI-H460 lung,11.3 µM
same,TGI,NCI-H522 lung,6.72 µM
same,TGI,NCI/ADR-RES ovarian,57.7 µM
same,TGI,OVCAR-3 ovarian,3.1 µM
same,TGI,OVCAR-4 ovarian,17 µM
same,TGI,OVCAR-5 ovarian,30.9 µM
same,TGI,OVCAR-8 ovarian,7.16 µM
same,TGI,PC-3 prostate,3.38 µM
same,TGI,RXF 393 renal,3.3 µM
same,TGI,SF-268 CNS,5.09 µM
same,TGI,SF-295 CNS,13.5 µM
same,TGI,SF-539 CNS,5.05 µM
same,TGI,SK-MEL-2 melanoma,5.04 µM
same,TGI,SK-MEL-28 melanoma,60.6 µM
same,TGI,SK-MEL-5 melanoma,26.4 µM
same,TGI,SK-OV-3 ovarian,24.3 µM
same,TGI,SN12C renal,8.57 µM
same,TGI,SNB-19 CNS,3.19 µM
same,TGI,SNB-75 CNS,6.24 µM
same,TGI,SR leukemia,10.9 µM
same,TGI,SW-620 colon,> 100 µM
same,TGI,T-47D breast,4.1 µM
same,TGI,TK-10 renal,5.39 µM
same,TGI,U251 CNS,3.3 µM
same,TGI,UACC-257 melanoma,4.76 µM
same,TGI,UACC-62 melanoma,7.27 µM
same,TGI,UO-31 renal,3.34 µM
